The record followed here is PMC11641365, “Evaluation of In Vitro Biological Activity of Flavanone/Chromanone Derivatives: Molecular Analysis of Anticancer Mechanisms in Colorectal Cancer” (International Journal of Molecular Sciences, 2024).

Holding throughout (assay type): cell-based, human
The test system of assay [1] is HCT 116. The experiment in a line: Superoxide anion level, DHE probe. The settings on record: compound at IC50, 24 h, vs control. As to the method:
(§1) Superoxide anion (O2^•−) levels were quantified using a microplate spectrofluorometric assay with dihydroethidium (DHE) (Life Technologies, Carlsbad, CA, USA). DHE is a well-established fluorogenic probe for intracellular superoxide detection. […] The reaction between superoxide and DHE produces a highly specific red fluorescent product, 2-hydroxyethidium (2-OH-E ^+).
(§2) Cells were seeded in black 96-well fluorometric microplates at a density of 10 × 10^3 cells/mL. […] Following compound incubation, the medium was removed, and the cell monolayers were washed twice with HBSS (140 mM NaCl, 5 mM KCl, 0.8 mM MgCl2, 1.8 mM CaCl2, 1 mM Na2HPO4, 10 mM HEPES, and 1% glucose). A volume of 50 µL of DHE solution in HBSS (final concentration 5 μM) was added to each well, and the cells were incubated for 30 min in the dark at 37 °C. After incubation with the DHE, fluorescence measurements were conducted using a Perkin-Elmer LS-5B spectrofluorometer (Waltham, MA, USA) at the following excitation and fluorescence emission wavelengths: λex = 498 nm/λem = 582 nm. The fluorescence intensity of control cells was arbitrarily assigned a value of 100%. The results were expressed as percentages of control, calculated by comparing the fluorescence intensity ratio of the test samples to controls (100%). The fluorescence of samples was denoted as Δf in relation to the control.

For assay [2], the system named is Caco-2. Nature of the assay: Superoxide anion level, DHE probe. The settings on record: compound at IC50, 24 h, vs control. Here is the method:
as §1, §2

The test system of assay [3] is SW620. Nature of the assay: Superoxide anion level, DHE probe. The settings on record: compound at IC50, 24 h, vs control. Here is the method: as §1, §2
Another assay concerns HMEC-1. The experiment in a line: MTT cell viability assay, model of normal cells. The settings on record: difference of IC50 values. As to the method:
The cytotoxic activity of the 3-benzylideneflavanones, 3-benzylidenechromanones derivatives (compounds 1, 2, 3, 4, 5) and 5′-(3-methoxyphenyl)-2-phenyl-4′,5′-dihydro-4H-spiro[chromano-3,3′-pirazol]-4-one (compound 3a) was evaluated using the MTT assay (4,5-dimethylthiazol-2-yl)-2,5-diphenyltetrazoliumbromide), a colorimetric method that quantifies cell viability.
Cell viability was determined using the metabolic microplate spectrophotometric assay with Methylthiazolyl diphenyltetrazolium bromide (MTT) (Sigma-Aldrich; St. Louis, MO, USA). The MTT method belongs to metabolic tests for determining cell viability and consists of measuring the absorbance of a violet solution of formazan, a product of the reduction of a water-soluble yellow MTT by oxidoreductive enzymes (mainly mitochondrial succinate dehydrogenase) of living cells. […]
The appropriate number of cells for a given cell line (6–8 × 10^3 cells/mL) were seeded onto colorless, sterile 96-well microplates (Nunc, Roskilde, Denmark) in the number appropriate for a given cell line. […] The absorbance of the formazan solution, after gentle mixing, was read at a wavelength of λ = 580 nm and a reference wavelength of λ = 720 nm (Biotek Power Wave HT, Biotek Instruments, Winooski, VT, USA). […] The absorbance of the control was taken as 100%.
(In general: Tetrazolium assays rely on reduction of a dye to a coloured formazan, in cell work by metabolically active cells.)

The test system of assay [4] is Caco-2. Nature of the assay: Hydrogen peroxide level, H2DCFDA probe. The settings on record: compound at IC50, 24 h, vs control. Here is the method: (§3) Cellular H2O2 levels were assessed using 2′,7′-dichlorodihydrofluorescein diacetate (H2DCFDA, Sigma-Aldrich, St. Louis, MO, USA), a well-established fluorogenic probe for intracellular hydrogen peroxide detection. H2DCFDA readily diffuses across the cell membrane and is subsequently hydrolyzed by intracellular esterases to non-fluorescent H2DCF. Oxidation of H2DCF by ROS generates highly fluorescent 2′,7′-dichlorofluorescein (DCF), which accumulates in the cytosol. […] The fluorescence intensity of DCF is directly proportional to the concentration of ROS within the cell.
as §2, with “H2DCFDA” for “DHE”, “H2DCFDA,” for “DHE,”, “(MA,” for “(Waltham, MA,”, “522” for “582”

The subject of assay [5] is HCT 116. The experiment in a line: Hydrogen peroxide level, H2DCFDA probe. The settings on record: compound at IC50, 24 h. As to the method: as §3
as §2, with “H2DCFDA” for “DHE”, “H2DCFDA,” for “DHE,”, “(MA,” for “(Waltham, MA,”, “522” for “582”

The test system of assay [6] is SW620. The experiment in a line: Hydrogen peroxide level, H2DCFDA probe. The settings on record: compound at IC50, 24 h, vs control. Here is the method:
as §3
as §2, with “H2DCFDA” for “DHE”, “H2DCFDA,” for “DHE,”, “(MA,” for “(Waltham, MA,”, “522” for “582”

Structures are written as SMILES.

For `O=C1/C(=C/c2ccccc2)COc2ccccc21` [Compound 1], the “Increase in O2−• (superoxide anion) levels” value in the assay with HCT 116 [1] was 10–15%; with Caco-2 [2] it was 30%; in the assay on SW620 [3] it was 10–15%. Also, in the assay with HMEC-1, the “IC50 against HMEC-1 higher than for the majority of tested cancer cell lines (selectivity)” value is on record as “approximately 10 µM”. In the assay with Caco-2 [4], the “Increase in H2O2 levels” value is reported as “approximately 25%”.

As for `O=C1/C(=C/c2ccccc2)C(c2ccccc2)Oc2ccccc21` (stereo not shown) [Compound 5], the “Effect on H2O2 levels” value with HCT 116 [5] is on record as “did not affect H2O2 levels”. For the same compound, the “Increase in H2O2 levels” value in the assay with SW620 [6] stood at 15%.
